Species on record: Rattus norvegicus
Test: DrugMatrix - Regimen: Daily Repeat
Assay type: toxicity, organism-based, Sprague-Dawley
Design: regimen Daily Repeat, gender Male, age 6-8 weeks
Details: in vivo, po, route oral GAVAGE, vehicle 100 % WATER; for ABSOLUTE BASOPHIL / ABSOLUTE EOSINOPHIL / ABSOLUTE LYMPHOCYTE / ABSOLUTE MONOCYTE / ABSOLUTE SEGMENTED NEUTROPHIL / BASOPHIL / EOSINOPHIL / ERYTHROCYTE COUNT / HEMATOCRIT / HEMOGLOBIN / LEUKOCYTE COUNT / LYMPHOCYTE / MEAN CORPUSCULAR HEMOGLOBIN / MEAN CORPUSCULAR HEMOGLOBIN CONCENTRATION / MEAN CORPUSCULAR VOLUME / MONOCYTE / NEUTROPHIL / NUCLEATED RED BLOOD CELLS / PLATELET COUNT: tissue Blood; for ALANINE AMINOTRANSFERASE / ALBUMIN / ALKALINE PHOSPHATASE / ASPARTATE AMINOTRANSFERASE / BLOOD UREA NITROGEN / CARBON DIOXIDE / CHLORIDE / CHOLESTEROL / CREATINE PHOSPHOKINASE / CREATININE / GLUCOSE / LACTATE DEHYDROGENASE / LIPASE / PHOSPHORUS / POTASSIUM / SODIUM / TOTAL BILIRUBIN / TOTAL PROTEIN / URIC ACID: tissue Plasma
[1] = 20 mg/kg, 72 h, dose level Low, time 3 day
[2] = 20 mg/kg, 120 h, dose level Low, time 5 day
[3] = 688 mg/kg, 72 h, dose level High, time 3 day
[4] = 688 mg/kg, 120 h, dose level High, time 5 day

COc1ccc(CN(CCN(C)C)c2ccccn2)cc1 [PYRILAMINE]
ABSOLUTE BASOPHIL [1]: 0 CELLS/uL | ABSOLUTE EOSINOPHIL [1]: 0 CELLS/uL | ABSOLUTE LYMPHOCYTE [1]: 6764.67 CELLS/uL | ABSOLUTE MONOCYTE [1]: 0 CELLS/uL | ABSOLUTE SEGMENTED NEUTROPHIL [1]: 435.33 CELLS/uL | BASOPHIL [1]: 0% | EOSINOPHIL [1]: 0% | ERYTHROCYTE COUNT [1]: 5.22 x10E6/uL | HEMATOCRIT [1]: 33.7% | HEMOGLOBIN [1]: 13.67 G/DL | LEUKOCYTE COUNT [1]: 7.2 x10E3/uL | LYMPHOCYTE [1]: 93.67% | MEAN CORPUSCULAR HEMOGLOBIN [1]: 26.2 pg | MEAN CORPUSCULAR HEMOGLOBIN CONCENTRATION [1]: 40.57 G/DL | MEAN CORPUSCULAR VOLUME [1]: 64.53 fL | MONOCYTE [1]: 0% | NEUTROPHIL [1]: 6.33% | NUCLEATED RED BLOOD CELLS [1]: 0 /100WBC | PLATELET COUNT [1]: 1037.67 x10E3/uL | ALANINE AMINOTRANSFERASE [1]: 45.67 u/L | ALBUMIN [1]: 4.37 G/DL | ALKALINE PHOSPHATASE [1]: 340.33 u/L | ASPARTATE AMINOTRANSFERASE [1]: 91.33 u/L | BLOOD UREA NITROGEN [1]: 16.67 mg/dL | CARBON DIOXIDE [1]: 33.67 mmol/L | CHLORIDE [1]: 98.33 MEQ/L | CHOLESTEROL [1]: 83 mg/dL | CREATINE PHOSPHOKINASE [1]: 408.33 u/L | CREATININE [1]: 0.23 mg/dL | GLUCOSE [1]: 112.67 mg/dL | LACTATE DEHYDROGENASE [1]: 148.67 u/L | LIPASE [1]: 10.33 u/L | PHOSPHORUS [1]: 11.07 mg/dL | POTASSIUM [1]: 6.81 MEQ/L | SODIUM [1]: 145.13 MEQ/L | TOTAL BILIRUBIN [1]: 0.2 mg/dL | TOTAL PROTEIN [1]: 6.37 G/DL | URIC ACID [1]: 0.83 mg/dL | ABSOLUTE BASOPHIL [2]: 0 CELLS/uL | ABSOLUTE EOSINOPHIL [2]: 0 CELLS/uL | ABSOLUTE LYMPHOCYTE [2]: 14373.33 CELLS/uL | ABSOLUTE MONOCYTE [2]: 89.33 CELLS/uL | ABSOLUTE SEGMENTED NEUTROPHIL [2]: 1937.33 CELLS/uL | BASOPHIL [2]: 0% | EOSINOPHIL [2]: 0% | ERYTHROCYTE COUNT [2]: 5.38 x10E6/uL | HEMATOCRIT [2]: 33.67% | HEMOGLOBIN [2]: 13.67 G/DL | LEUKOCYTE COUNT [2]: 16.4 x10E3/uL | LYMPHOCYTE [2]: 88.33% | MEAN CORPUSCULAR HEMOGLOBIN [2]: 25.47 pg | MEAN CORPUSCULAR HEMOGLOBIN CONCENTRATION [2]: 40.63 G/DL | MEAN CORPUSCULAR VOLUME [2]: 62.73 fL | MONOCYTE [2]: 0.67% | NEUTROPHIL [2]: 11% | NUCLEATED RED BLOOD CELLS [2]: 0 /100WBC | PLATELET COUNT [2]: 1183.67 x10E3/uL | ALANINE AMINOTRANSFERASE [2]: 53.33 u/L | ALBUMIN [2]: 4.13 G/DL | ALKALINE PHOSPHATASE [2]: 437.33 u/L | ASPARTATE AMINOTRANSFERASE [2]: 80.67 u/L | BLOOD UREA NITROGEN [2]: 17 mg/dL | CARBON DIOXIDE [2]: 28.67 mmol/L | CHLORIDE [2]: 104.67 MEQ/L | CHOLESTEROL [2]: 64.33 mg/dL | CREATINE PHOSPHOKINASE [2]: 242 u/L | CREATININE [2]: 0.17 mg/dL | GLUCOSE [2]: 160 mg/dL | LACTATE DEHYDROGENASE [2]: 86.33 u/L | LIPASE [2]: 8.67 u/L | PHOSPHORUS [2]: 14.2 mg/dL | POTASSIUM [2]: 6.63 MEQ/L | SODIUM [2]: 147.07 MEQ/L | TOTAL BILIRUBIN [2]: 0.17 mg/dL | TOTAL PROTEIN [2]: 6 G/DL | URIC ACID [2]: 1.7 mg/dL | ABSOLUTE BASOPHIL [3]: 0 CELLS/uL | ABSOLUTE EOSINOPHIL [3]: 0 CELLS/uL | ABSOLUTE LYMPHOCYTE [3]: 13165.67 CELLS/uL | ABSOLUTE MONOCYTE [3]: 0 CELLS/uL | ABSOLUTE SEGMENTED NEUTROPHIL [3]: 1201 CELLS/uL | BASOPHIL [3]: 0% | EOSINOPHIL [3]: 0% | ERYTHROCYTE COUNT [3]: 5.73 x10E6/uL | HEMATOCRIT [3]: 34.93% | HEMOGLOBIN [3]: 14.1 G/DL | LEUKOCYTE COUNT [3]: 14.37 x10E3/uL | LYMPHOCYTE [3]: 91.67% | MEAN CORPUSCULAR HEMOGLOBIN [3]: 24.63 pg | MEAN CORPUSCULAR HEMOGLOBIN CONCENTRATION [3]: 40.37 G/DL | MEAN CORPUSCULAR VOLUME [3]: 61.07 fL | MONOCYTE [3]: 0% | NEUTROPHIL [3]: 8.33% | NUCLEATED RED BLOOD CELLS [3]: 0 /100WBC | PLATELET COUNT [3]: 1288.33 x10E3/uL | ALANINE AMINOTRANSFERASE [3]: 50.67 u/L | ALBUMIN [3]: 4.27 G/DL | ALKALINE PHOSPHATASE [3]: 466 u/L | ASPARTATE AMINOTRANSFERASE [3]: 87.67 u/L | BLOOD UREA NITROGEN [3]: 12.33 mg/dL | CARBON DIOXIDE [3]: 34 mmol/L | CHLORIDE [3]: 100.67 MEQ/L | CHOLESTEROL [3]: 65.67 mg/dL | CREATINE PHOSPHOKINASE [3]: 183.33 u/L | CREATININE [3]: 0.13 mg/dL | GLUCOSE [3]: 155.33 mg/dL | LACTATE DEHYDROGENASE [3]: 142 u/L | LIPASE [3]: 9 u/L | PHOSPHORUS [3]: 13.33 mg/dL | POTASSIUM [3]: 6.65 MEQ/L | SODIUM [3]: 145.23 MEQ/L | TOTAL BILIRUBIN [3]: 0.1 mg/dL | TOTAL PROTEIN [3]: 5.8 G/DL | URIC ACID [3]: 1.7 mg/dL | ABSOLUTE BASOPHIL [4]: 0 CELLS/uL | ABSOLUTE EOSINOPHIL [4]: 82 CELLS/uL | ABSOLUTE LYMPHOCYTE [4]: 13712.5 CELLS/uL | ABSOLUTE MONOCYTE [4]: 237 CELLS/uL | ABSOLUTE SEGMENTED NEUTROPHIL [4]: 1918.5 CELLS/uL | BASOPHIL [4]: 0% | EOSINOPHIL [4]: 0.5% | ERYTHROCYTE COUNT [4]: 6.11 x10E6/uL | HEMATOCRIT [4]: 37.55% | HEMOGLOBIN [4]: 14.85 G/DL | LEUKOCYTE COUNT [4]: 15.95 x10E3/uL | LYMPHOCYTE [4]: 86% | MEAN CORPUSCULAR HEMOGLOBIN [4]: 24.3 pg | MEAN CORPUSCULAR HEMOGLOBIN CONCENTRATION [4]: 39.6 G/DL | MEAN CORPUSCULAR VOLUME [4]: 61.35 fL | MONOCYTE [4]: 1.5% | NEUTROPHIL [4]: 12% | NUCLEATED RED BLOOD CELLS [4]: 0 /100WBC | PLATELET COUNT [4]: 1201.5 x10E3/uL | ALANINE AMINOTRANSFERASE [4]: 60.5 u/L | ALBUMIN [4]: 4.45 G/DL | ALKALINE PHOSPHATASE [4]: 346.5 u/L | ASPARTATE AMINOTRANSFERASE [4]: 96 u/L | BLOOD UREA NITROGEN [4]: 14.5 mg/dL | CARBON DIOXIDE [4]: 35.5 mmol/L | CHLORIDE [4]: 99 MEQ/L | CHOLESTEROL [4]: 60 mg/dL | CREATINE PHOSPHOKINASE [4]: 292 u/L | CREATININE [4]: 0.24 mg/dL | GLUCOSE [4]: 142 mg/dL | LACTATE DEHYDROGENASE [4]: 333.5 u/L | LIPASE [4]: 11 u/L | PHOSPHORUS [4]: 13.2 mg/dL | POTASSIUM [4]: 6.7 MEQ/L | SODIUM [4]: 146.5 MEQ/L | TOTAL BILIRUBIN [4]: 0.15 mg/dL | TOTAL PROTEIN [4]: 6 G/DL | URIC ACID [4]: 2 mg/dL
